Marks after values point to notes of the source that are not given here.

The test system of experiment [1] is transient focal cerebral ischemia. The experiment in a line: Transient focal cerebral ischemia in rats, lesion size. In kind it is in vivo, rat. The conditions noted are these: 10 mg/kg iv 1 hour after ischemia onset. On the procedure: Methods: Male Sprague-Dawley rats [Iffa Credo, France] weighing about 220–240 g were anaesthetized with halothane (1.4%) in a nitrous oxide-oxygen mixture (70:30). Both common carotid arteries (CCAs) were isolated. The left middle cerebral artery (MCA) exposed via a temporal craniotomy was occluded with a microclip, and simultaneously the CCAs were occluded for 1 hour. Both body and cerebral temperatures were kept at normothermia. Following surgery animals were returned to their home cages in a room warmed at 24–26° C.
HP184, dissolved in 1% tween (in injectable sterile water), was administered at 10 and 20 mg/kg iv 1 hour after ischemia onset, and control rats received the vehicle according to the same protocol. At 24 h post-ischemia, a neurological function using a 9 points grading scale was performed blindly.
Thereafter rats were killed and brains were removed. Fresh sections were cut with a brain matrix and stained with triphenyl tetrazolium chloride 2% at 37° C. for 5 min. The sections were then stored in 10% formalin at 4° C. for 24 h. Areas of infarction were measured with an image analyzer (Leica Q500).

Experiment [2] relates to spinal cord crush-induced motor impairments. Kind of experiment: Acute treatment after moderate spinal cord crush (1.4 mm), Open Field Walking Scale. In kind it is in vivo, rat.
Experiment [3] has as its system long-standing (25 days) spinal cord injury of minor intensity. Kind of experiment: Chronic crush experiment, 25-day old mild compression injury (1.6 mm), OFT score. The class given is in vivo, rat. To be noted: for OFT score 3 hours after last dose (Day 28, mild) / OFT score 3 hours after last dose: three consecutive daily doses; for OFT score prior to dose (Day 25, mild): group 3 mg/kg po; for OFT score prior to dose (Day 25, mild) / OFT score prior to dose: baseline before dosing. From the text: Normal spinal cord diameter is approximately 2.5 mm. This compression represents a moderate injury characterized by initial open field walking scores of 1.5–2.5 in the Open Field Walking Scale. […] The spinal cords of female rats were exposed to laminectomy or crush to a diameter of 1.6 mm. This represented a minor injury, and was designed to result in OFT scores of 4.0 after 25 days of no treatment. […] In this experiment, OFT scores were slightly higher (4.3–4.5), leaving only a small window for improvement. […] Consistent improvement was also observed after once a day ip 0.6 mg/kg 4-AP as well. The statistical differences were based upon the changes for each individual rat (each rat was its own control) using Mann-Whitney U-test. All the behavioral tests on day1, day2 and day3 were performed at 3 hours after gavage. There was no drug given on day3 (first day started to give drug was day 0).

Experiment [4] relates to moderate chronic (35 days post-injury) spinal cord crush. The experiment in a line: Long standing moderate spinal cord crush (35 days), OFT score. The class given is in vivo, rat. From the text: A tabular representation of the results from both chronic spinal cord injury studies (drugs first administered 25 days after a mild spinal cord crush and 35 days after a moderate spinal cord crush) are shown in Table 5.
One hundred fifty adult female Wistar rats, 250–300 g weight, obtained from Charles River were housed in the McMaster University Health Sciences Centre (HSC) Central Animal Facilities (CAF) for at least one week. During that time they were exposed to the performance tests described below, to ensure they were familiar with them. Rats were handled daily for 2 weeks prior to surgery.
Rats were anesthetized using isoflurane (3–5%): O2 (1 L/min) in an appropriately equipped surgical suite in the CAF. Temgesic (0.03 mg/kg body weight, subcutaneously (SQ)) was administered prior to surgery for pain relief. Spinal cords were crushed (compressed) with a 3.5 mm wide modified coverslip forceps (Blight 1991, procedure revised by Rathbone laboratory). The forceps were closed to 1.4 mm for 15 sec, which produced injury level equivalent to the mid-level (moderate) outcome on the Gruner scale (1996). The compression injury was otherwise performed according to the procedure described by Blight (1991).
Changes in locomotor behaviour and segmental reflexes were assessed up to 5 weeks post injury. Animals were tested in an open field walking task, hind limb placement and foot orientation. The animals were evaluated on days 2, 7, 14, 21, 28 and 35 after surgery. By 35 days after surgery, almost no further spontaneous recovery occurs. Therefore treatment began on day 35.
HP184 was dissolved in sterilized (autoclaved) deionized reverse-osmosis water acidified with glacial acetic acid (0.1 ml acid per 10 ml of water). 4-AP (Sigma, molecular weight 94.12; Jankowska E. et al., 1982; Gruner et al., 1999) was dissolved in physiological saline (0.6 mg/kg b.w.) and was administered by i.p. injection. One group of rats (vehicle control-1) received by oral gavage vehicle. Behaviourial testing was done immediately prior to receiving the gavage and at 3 hours thereafter. Then, the rats were scarified on day 35. All the other rats received either HP184 by oral gavage (0.3, 1, or 3 mg/kg bw depending on the group) or 4-AP (0.6 mg/kg, i.p.) or vehicle (vehicle control-2) once a day on the 35 to 42 days after surgery. On these days behaviourial tests were done immediately prior to receiving the gavage at 3 and 24 hours thereafter. Then, the rats were perfused on day 43 after the last behaviourial testing.
Statistical analyses were performed on a Macintosh computer using GB-Stat ppc 6.5.2. The behavioral scores were analyzed by the Kruskal-Wallis nonparametric analysis of variance (ANOVA). Post hoc comparisons were made using Mann-Whitney U tests.

For experiment [5], the system named is acute bladder irritation. The experiment in a line: Bladder irritation in the rat (protamine sulfate/KCl model), continuous open cystometry. In kind it is in vivo. To be noted: intravenous, cumulative dose-response, urethane anesthetized rats, P=0.0019. On the procedure:
Fraser et al combined protamine sulfate treatment, thought to breakdown urothelial umbrella cell barrier function, and physiologic urine concentrations of KCl (500 mM). The effects of intravenous HP-184 were compared to vehicle alone (n=4/group) in a cumulative dose-response study in urethane anesthetized rats with acute bladder irritation. Continuous open cystometry, which measures the filling and emptying of the bladder during continuous infusion, was utilized to determine the effect of the drug on bladder irritation. When the bladder is irritated, it contracts more frequently during the same filling rate due to sensitization of C-fiber afferent nerves. FIG. 8 illustrates the dose-dependent decrease in bladder contraction frequency from pre-administration irritation values compared to the effects of vehicle alone.

As to `CCCN(c1ccncc1F)n1cc(C)c2ccccc21` [HP184, N-(3-fluoro-4-pyridinyl)-N-propyl-3-methyl-1H-indole-1-amine], the “reduction of lesion in the cortex” value in experiment [1] (cortex) is −45%. Besides, the “reduction of brain lesions” value in experiment [1] (measured 24 h post-ischemia) was determined as 41%. Moreover, the “rate and extent of improvement of OFT score” value in experiment [2] (20 and 5 mg/kg ip within 15 minutes of crush, repeated days 2 and 3, FIG. 2) is listed as “significantly different from vehicle treated rats”; in experiment [2] (po 5–10 minutes prior to crush, then once a day days 2 and 3, vs vehicle treated group, FIG. 3), “improved for all doses”. The “OFT improvement compared to vehicle control (Mann-Whitney U-test)” value was “significant improvement at 30 min to 6 h to day 1” in experiment [3] (3 mg/kg po once a day, p=0.0027); “significant improvement at 30 min and 3 h to 12 h” in experiment [3] (10 mg/kg po once a day, p=0.014); “significant improvement at 3 h to day 3” in experiment [3] (20 mg/kg po once a day, p=0.002). Also, the “OFT score 3 hours after last dose (Day 28, mild)” value in experiment [3] (3 mg/kg po once a day) was 4.47 ± .035; in experiment [3] (3 mg/kg po once a day, listed as HP), 4.47 ± 0.04. The figures for the “OFT score 3 hours after last dose” value in experiment [3] (10 mg/kg po once a day) and in experiment [3] (20 mg/kg po once a day) were 4.44 ± 0.03 and 4.60 ± 0.02, respectively. Further, the “% possible improvement (highest score = 5), mild” value in experiment [3] (3 mpk po) is listed as 22.0%*. Further, the “Delta of OFT score, Day 25 to Day 28 (mild)” value in experiment [3] (3 mpk po) is listed as “.15”. In addition, the “OFT score prior to dose (Day 25, mild)” value in experiment [3] is 4.32 ± .016; in experiment [3] (listed as HP) it was 4.32 ± 0.05. Moreover, the “OFT score prior to dose” value in experiment [3] (group 10 mg/kg po) is recorded as 4.36 ± 0.01; in experiment [3] (group 20 mg/kg po) it was 4.54 ± 0.02. For the same molecule, in experiment [4] (3 mg/kg po vs 0.3 and 1 mg/kg, days 35–42), the “recovery of locomotor function, comparison of the doses” value is listed as “produced the best recovery of locomotor function”. The “% possible improvement, moderate” value in experiment [4] (3 mpk po) was determined as 24.8%*. Besides, the “Delta of OFT score, Day 35 to Day 39 (moderate)” value in experiment [4] (3 mpk po) is “.274”. In addition, the “OFT score Day 39 (moderate) 3 hrs after last dose” value in experiment [4] (3 mpk po daily) is listed as 4.17 ± .058. The “open field locomotor ability (mean OFT scores) vs vehicle, FIGS. 6a and 6b” value in experiment [4] (HP184 0.3, 1 or 3 mg/kg po or 4-AP 0.6 mg/kg ip once a day, days 35–42, treatment effect p<0.01) is “significantly different from that of control animals receiving vehicle”. Also, the “OFT score Day 35 (moderate) prior” value in experiment [4] (group 3 mpk po, baseline before dosing) was 3.89 ± .054. Also, the “bladder contraction frequency in irritated bladders, FIG. 8” value in experiment [5] was “significantly decreased bladder contraction frequency in irritated bladders in a dose-dependent fashion”.

(Values after patent publication US7179821B2, “Method of treating of demyelinating diseases or conditions” (Aventis Pharmaceuticals Inc., priority 2001, dated 2007).)
